Measured values reported in PubChem BioAssay (NCI).
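All cell lines were grown in 96-well plates and treated with compound for 48 hours. TGI: concentration producing complete growth inhibition.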

Experiments:
Test in all cases: NCI tumour cell line growth inhibition, 48 h
OVCAR-3 ovarian = test system: OVCAR-3 ovarian
MDA-MB-231 breast = test system: MDA-MB-231 breast
TK-10 renal = test system: TK-10 renal
HCC-2998 colon = test system: HCC-2998 colon
A549 NSCLC = test system: A549 NSCLC
UACC-62 melanoma = test system: UACC-62 melanoma
COLO 205 colon = test system: COLO 205 colon
SK-MEL-2 melanoma = test system: SK-MEL-2 melanoma
M14 melanoma = test system: M14 melanoma
SR leukemia = test system: SR leukemia
HS 578T breast = test system: HS 578T breast
NCI-H460 lung = test system: NCI-H460 lung
KM12 colon = test system: KM12 colon
SNB-75 CNS = test system: SNB-75 CNS

Row | Structure (SMILES) | TGI (OVCAR-3 ovarian) [µM] | TGI (MDA-MB-231 breast) [µM] | TGI (TK-10 renal) [µM] | TGI (HCC-2998 colon) [µM] | TGI (A549 NSCLC) [µM] | TGI (UACC-62 melanoma) [µM] | TGI (COLO 205 colon) [µM] | TGI (SK-MEL-2 melanoma) [µM] | TGI (M14 melanoma) [µM] | TGI (SR leukemia) [µM] | TGI (HS 578T breast) [µM] | TGI (NCI-H460 lung) [µM] | TGI (KM12 colon) [µM] | TGI (SNB-75 CNS) [µM]
1 | COc1c(-c2ccc(F)cc2)oc2c(CC(=O)O)cccc2c1=O | > 100 | > 100 | > 100 | > 100 | > 100 | > 100 | > 100 | > 100 | > 100 | > 100 | > 100 |  |  | 
2 | COC(=O)CCc1cc(OC)c2oc(-c3ccc(OC)c(OC)c3)c(CO)c2c1 | > 100 | > 100 | > 100 | > 100 | > 100 | > 100 | > 100 | > 100 | > 100 | > 100 | > 100 | > 100 | > 100 | 
3 | O=C(O)CCC1(CCC(=O)O)CCCCCCCCC(CCC(=O)O)(CCC(=O)O)C(=O)C1=O | > 100 |  | > 100 | > 100 | > 100 | > 100 | > 100 | > 100 | > 100 | > 100 | > 100 | > 100 | > 100 | > 100
4 | COc1cc(C2SCC(=O)N2c2ccc(Cl)cc2)cc(OC)c1OC (centres undefined) | > 100 | > 100 | > 100 | > 100 | > 100 |  | > 56.8 | > 100 | > 57.8 | 39.2 | > 100 | > 100 | > 82.8 | > 100
5 | CC(C)C1CCC(=O)CC1CCCCC1CC(=O)CC1O[Si](C)(C)C(C)(C)C (centres undefined) | > 47.5 | 40.5 | 23.4 | 19.3 | 32.9 | 17.1 | 21.5 | 24.5 | 43.4 | > 35.1 | 9.89 | > 100 | 7.93 | 26
6 | CC1=C(C(=O)NNC(=O)c2ccccc2O)CC(C(=O)NNC(=O)c2ccccc2O)=C(C)N1 | > 23.4 | > 27.9 | > 100 | > 100 | > 100 | > 100 | > 86.8 | > 100 | > 76 | > 29.2 | > 100 | > 100 | > 100 | > 100
7 | O=C(O)c1ccc(Nc2nc3ccc(C(F)(F)F)cc3nc2-c2ccccc2)cc1 | 72.6 |  | 52.4 | 40.3 | > 100 | 35.8 |  |  | > 100 | > 100 | > 100 | > 100 | > 10 | > 100
8 | CCOC(=O)c1c(Br)c(-c2ccc([N+](=O)[O-])cc2)c(Br)n1C | > 10 | > 10 | > 10 | > 10 | > 10 | > 10 | > 10 | > 10 | > 10 | > 10 | > 10 | > 10 | > 10 | > 10
9 | CC(C)(CN1CCCCC1)C(=O)CC(SCCS(=O)(=O)O)c1ccccc1 (centres undefined) | 29.8 | 32.4 | 38.1 | 41.8 | > 100 | 29.5 | 27.6 | 96.5 | 26 | 13.9 | 90.1 | > 100 | 44.8 | 54.9
10 | O=C(O)c1ccc(Nc2nc3ccc(C(F)(F)F)cc3nc2C(=O)O)cc1 | > 100 | > 100 | > 100 | > 100 | > 100 | > 100 | > 100 | > 100 | > 100 | > 100 | > 100 | > 100 | > 100 | > 100
11 | O=C(O)c1ccccc1/C=N\N(CCO)C1=NCCN1 | > 100 | > 100 | > 100 | > 100 | > 100 | > 100 | > 100 | > 100 | > 100 | > 100 | > 100 | > 100 | > 100 | > 100
12 | O=C(Nc1ccccc1)c1cc2cc(CCl)ccc2oc1=O | > 100 | > 100 | > 100 | > 100 | > 100 | 32.8 | > 100 | > 100 | > 100 | > 100 | 63.9 | > 100 | > 100 | > 100
13 | Cc1ccc(C(CCO)CCO)nc1 | > 100 | > 100 | > 100 | > 100 | > 100 | > 100 | > 100 | > 100 | > 100 | > 100 | > 100 | > 100 | > 100 | > 100
14 | CC(NNC(=S)N1CCCC1)c1cccnn1 (centres undefined) | > 100 | > 100 | > 31.5 | > 100 |  | 7.45 | > 100 | > 100 |  | > 100 | > 100 | > 81.5 | > 100 | > 28.7
15 | CC(=O)OC1CC2C(=O)CC1(C)C2(C)C (centres undefined) | > 100 | > 100 | > 100 | > 100 | > 100 | > 100 | > 100 | > 100 | > 100 | > 100 | > 100 | > 100 | > 100 | > 100
16 | COc1ccccc1/C=C1\CCC(CN2CCOCC2)C1=O (centres undefined) | 15.2 | 11.5 | 12.5 | 28.3 | 45 | 30.3 | 14.2 | 32.2 | 18.8 | 5.7 | > 100 | 36 | 14.5 | 46.3
17 | C/C1=C\CC[C@@]2(C)O[C@@H]2C[C@@H]2[C@H](C/C(C)=C/CC1)OC(=O)[C@]21CO1 | > 100 | > 100 | > 100 | > 100 | > 100 | > 100 | > 100 | > 100 | > 100 | > 100 | > 100 | 45.1 | > 100 | > 100

Row | Structure (SMILES) | TGI (OVCAR-3 ovarian) [µM] | TGI (MDA-MB-231 breast) [µM] | TGI (TK-10 renal) [µM] | TGI (HCC-2998 colon) [µM] | TGI (A549 NSCLC) [µM] | TGI (UACC-62 melanoma) [µM] | TGI (COLO 205 colon) [µM] | TGI (SK-MEL-2 melanoma) [µM] | TGI (M14 melanoma) [µM] | TGI (SR leukemia) [µM] | TGI (HS 578T breast) [µM] | TGI (NCI-H460 lung) [µM] | TGI (KM12 colon) [µM] | TGI (SNB-75 CNS) [µM]
18 | COC(=O)N1C2C(C[C@@]1(C)C(=O)OC)c1ccccc1N2S(=O)(=O)c1ccccc1 (some centres undefined) | > 100 | > 100 | > 100 | > 100 | > 100 | > 100 | > 100 | > 100 | > 100 | > 100 | > 100 | > 100 | > 100 | > 100
19 | CC(=O)O[C@H]1C(=O)[C@@]2(C)[C@H]([C@H](OC(=O)c3ccccc3)[C@]3(O)C[C@H](OC(=O)[C@H](O)[C@@H](NC(=O)OC(C)(C)C)c4ccco4)C(C)=C1C3(C)C)[C@]1(OC(C)=O)CO[C@@H]1C[C@@H]2O | 0.0471 | 14.7 | 29 | 0.00901 | > 50 | > 33.4 | < 0.005 | 10.9 | 25.2 | > 29 | < 0.005 | > 19 | > 50 | < 0.005
20 | Cc1c2c(n3c(nc4ccccc43)c1C#N)NCC2 | > 10 | > 10 | > 10 |  | > 10 | > 10 | > 10 |  | > 10 | > 10 | > 10 | > 10 | > 10 | > 10
21 | O=C1Nc2n[nH]c(=S)n2NC12c1ccccc1-c1ccccc12 | > 100 | > 100 | > 100 | > 100 | > 100 | 68.1 | > 100 | > 100 | > 100 | > 100 | > 100 | > 100 |  | > 100
22 | CC(c1ccccc1)n1c2ccccc2c2c(N)ncnc21 (centres undefined) | 30.6 | 34.9 | 34.9 | 34.5 | 46.3 |  |  | 45.3 | 34.1 | 56.7 | 47 | 58.3 |  | 9.19
23 | CCCCCCC(O)C(=O)OC1C2C(CC1(C)C)C(O)C13OC1C(O)C1(CO1)[C@@]23C (some centres undefined) | > 100 | > 100 | > 100 |  | > 100 | > 100 | > 100 |  | > 100 | > 100 | 79.3 |  | > 100 | 31.2
24 | Cn1c2ccccc2c(=NNc2ccc(S(=O)(=O)N=C(N)N)cc2)c2ccccc21 | 23 | 32.4 | 26.5 | 19.8 | 26.7 | 32 | 18.7 | 28 | 30.1 | 40.5 | 49.7 | 14 | 20.6 | 25.4
25 | CC(C)NC(=O)OCc1c(COC(=O)NC(C)C)c(-c2cc[n+](COC(=O)Cc3ccccc3)cc2)n2c1CCC2 | > 100 | > 100 | > 100 | > 100 | > 100 | > 100 | > 100 | > 100 | > 100 | > 100 | > 100 | > 100 | > 100 | > 100
26 | O=C1/C(=C/c2cccc([N+](=O)[O-])c2)Cc2ccccc21 | > 100 | > 100 | > 100 |  | > 100 | > 100 | > 100 | > 100 | > 100 | > 100 | > 100 | > 100 | > 100 | > 100
27 | O=C(Cn1c2ccc(Br)cc2c2nc3ccccc3nc21)N1CCOCC1 | > 100 | > 100 | > 100 | > 100 | > 100 | > 100 | > 100 | > 100 | > 100 |  | > 100 | > 100 | > 100 | > 100
28 | O=C(NCCCN1CCN(CCCNC(=O)c2cc(-c3ccccc3)nc3ccccc23)CC1)c1cc(-c2ccccc2)nc2ccccc12 | > 53.6 | > 62.6 | 60.2 | 6.06 | 48.7 | 37.5 | > 71.3 | 36.9 | 5.63 |  | 37.1 | > 64.7 | > 58.2 | > 52.6
29 | CC(=O)Oc1ccc(C)c2c1[C@H]1CC[C@]3(C)[C@@H](OC(C)=O)CC[C@H]3[C@@H]1CC2 | 33.1 | 33.9 | 67.9 | 32.8 | 50.8 | 34.5 |  |  | 32.2 | > 100 | 47 | 37.4 | 35.1 | 54.5
30 | C=C1C(=O)O[C@H]2C1C[C@H](O)/C(C)=C/CC[C@@]1(C)O[C@H]21 (some centres undefined) |  | 38.4 | 29.9 | 27.5 | > 100 | 22.9 | 18.2 | 39.9 | 23.9 | 30.9 | 75.2 |  | 30.1 | > 100
31 | CCN(CC)CCC(=O)Nc1ccc2sc3ccccc3c(=O)c2n1 | 43.2 |  | 57.5 | 42.7 | 37 | 35 | 29.1 | 45.8 | 28.1 | > 100 | 46.1 | 61.6 | 32.1 | 21.6
32 | CC1=NC(=O)CNN1C1=NNC2(C(=O)N1)c1ccccc1-c1ccccc12 | > 100 | > 100 | > 100 | > 100 | > 100 | > 100 | > 100 | > 100 | > 100 | > 100 | > 100 | > 100 |  | > 100
33 | CC(Cn1c(=O)oc2ccccc21)N(C)C (centres undefined) | > 100 | > 100 | > 100 |  |  | > 100 | > 100 | > 100 | > 100 | > 100 | > 100 | > 100 | > 100 | > 100
34 | C[C@@]12C[C@@H](c3ccccc3O1)N1CCCSC1=N2 | > 100 | > 100 | > 100 | > 100 |  | > 100 | > 100 | > 100 | > 100 | > 100 | > 100 | > 100 | > 100 | > 100
